Experimental data: PubChem BioAssay AID1963839 (Molecular Pharmacology Branch, DTP, NCI, 2024)

Tested on: 817829-284-R-J1-PDC complex spheroid viability
Assay: Anticancer human tumor 817829-284-R-J1-PDC patient-derived colon adenocarcinoma cell line growth inhibition [POLQ]
Details: for IC50: curve of first compound; for viability, T/C: stronger effect = lower value
Summary of the method: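 Three-cell-type spheroids modelling solid tumor plus stroma served as the readout system; POL inhibitors were tested individually and in combination, concentration ranges set by clinical Cmax where known.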

[1] = second compound 0.0316 µM, first compound 0.0316 µM
[2] = second compound 0.0316 µM, first compound 0.1 µM
[3] = second compound 0.0316 µM, first compound 0.316 µM
[4] = second compound 0.0316 µM, first compound 1 µM
[5] = second compound 0.0316 µM, first compound 3.16 µM
[6] = second compound 0.0316 µM, first compound 10 µM
[7] = second compound 0.1 µM, first compound 0.0316 µM
[8] = second compound 0.1 µM, first compound 0.1 µM
[9] = second compound 0.1 µM, first compound 0.316 µM
[10] = second compound 0.1 µM, first compound 1 µM
[11] = second compound 0.1 µM, first compound 3.16 µM
[12] = second compound 0.1 µM, first compound 10 µM
[13] = second compound 0.316 µM, first compound 0.0316 µM
[14] = second compound 0.316 µM, first compound 0.1 µM
[15] = second compound 0.316 µM, first compound 0.316 µM
[16] = second compound 0.316 µM, first compound 1 µM
[17] = second compound 0.316 µM, first compound 3.16 µM
[18] = second compound 0.316 µM, first compound 10 µM
[19] = second compound 1 µM, first compound 0.0316 µM
[20] = second compound 1 µM, first compound 0.1 µM
[21] = second compound 1 µM, first compound 0.316 µM
[22] = second compound 1 µM, first compound 1 µM
[23] = second compound 1 µM, first compound 3.16 µM
[24] = second compound 1 µM, first compound 10 µM
[25] = second compound 3.16 µM, first compound 0.0316 µM
[26] = second compound 3.16 µM, first compound 0.1 µM
[27] = second compound 3.16 µM, first compound 0.316 µM
[28] = second compound 3.16 µM, first compound 1 µM
[29] = second compound 3.16 µM, first compound 3.16 µM
[30] = second compound 3.16 µM, first compound 10 µM
[31] = second compound 10 µM, first compound 0.0316 µM
[32] = second compound 10 µM, first compound 0.1 µM
[33] = second compound 10 µM, first compound 0.316 µM
[34] = second compound 10 µM, first compound 1 µM
[35] = second compound 10 µM, first compound 3.16 µM
[36] = second compound 10 µM, first compound 10 µM
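Further: spheroids exposed to compounds for 7 days.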
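Wherever viability, T/C is given: 100% = DMSO vehicle-treated spheroids.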

SMILES: CC1COCCN1c1cc(C2(S(C)(=N)=O)CC2)nc(-c2ccnc3[nH]ccc23)n1 (stereo unspecified) + Nc1ccc(C#CCN(C(=O)Cc2ncc(C(F)(F)F)cc2C(F)(F)F)c2ccc(F)cc2)nn1
- IC50 (second compound 0.0316 µM): 313 nM
- IC50 (second compound 0.1 µM): 437 nM
- IC50 (second compound 0.316 µM): 409 nM
- IC50 (second compound 1 µM): 487 nM
- IC50 (second compound 3.16 µM): 471 nM
- IC50 (second compound 10 µM): 306 nM
- viability, T/C [1]: 83.3%
- viability, T/C [2]: 74.2%
- viability, T/C [3]: 48.2%
- viability, T/C [4]: 25.8%
- viability, T/C [5]: 8.98%
- viability, T/C [6]: 4.09%
- viability, T/C [7]: 83.5%
- viability, T/C [8]: 82.1%
- viability, T/C [9]: 60.7%
- viability, T/C [10]: 21.9%
- viability, T/C [11]: 8.16%
- viability, T/C [12]: 4.21%
- viability, T/C [13]: 99.9%
- viability, T/C [14]: 86.6%
- viability, T/C [15]: 57.8%
- viability, T/C [16]: 24.6%
- viability, T/C [17]: 7.24%
- viability, T/C [18]: 5.14%
- viability, T/C [19]: 86.9%
- viability, T/C [20]: 87.2%
- viability, T/C [21]: 67.6%
- viability, T/C [22]: 20.4%
- viability, T/C [23]: 7.25%
- viability, T/C [24]: 5.6%
- viability, T/C [25]: 95.7%
- viability, T/C [26]: 83.7%
- viability, T/C [27]: 66%
- viability, T/C [28]: 22.3%
- viability, T/C [29]: 6.64%
- viability, T/C [30]: 4.14%
- viability, T/C [31]: 86.6%
- viability, T/C [32]: 76.3%
- viability, T/C [33]: 48.1%
- viability, T/C [34]: 23.1%
- viability, T/C [35]: 5.64%
- viability, T/C [36]: 5.25%

SMILES: CC1COCCN1c1cc(-c2ccnn2C)c2ccnc(-c3ccn[nH]3)c2n1 (stereo unspecified) + Nc1ccc(C#CCN(C(=O)Cc2ncc(C(F)(F)F)cc2C(F)(F)F)c2ccc(F)cc2)nn1
- IC50 (second compound 0.0316 µM): 45.7 nM
- IC50 (second compound 0.1 µM): 47.9 nM
- IC50 (second compound 0.316 µM): 41.4 nM
- IC50 (second compound 1 µM): 48.6 nM
- IC50 (second compound 3.16 µM): 53.6 nM
- IC50 (second compound 10 µM): 51.2 nM
- viability, T/C [1]: 66.6%
- viability, T/C [2]: 15.1%
- viability, T/C [3]: 5.55%
- viability, T/C [4]: 3.95%
- viability, T/C [5]: 3.46%
- viability, T/C [6]: 3.51%
- viability, T/C [7]: 69.3%
- viability, T/C [8]: 16.2%
- viability, T/C [9]: 5.6%
- viability, T/C [10]: 3.72%
- viability, T/C [11]: 3.57%
- viability, T/C [12]: 2.68%
- viability, T/C [13]: 60.5%
- viability, T/C [14]: 16.4%
- viability, T/C [15]: 5.61%
- viability, T/C [16]: 3.98%
- viability, T/C [17]: 3.56%
- viability, T/C [18]: 2.61%
- viability, T/C [19]: 70.6%
- viability, T/C [20]: 15.2%
- viability, T/C [21]: 6.24%
- viability, T/C [22]: 4.01%
- viability, T/C [23]: 3.75%
- viability, T/C [24]: 3.12%
- viability, T/C [25]: 72.8%
- viability, T/C [26]: 23.1%
- viability, T/C [27]: 5.89%
- viability, T/C [28]: 4.04%
- viability, T/C [29]: 3%
- viability, T/C [30]: 3.74%
- viability, T/C [31]: 73.9%
- viability, T/C [32]: 16.9%
- viability, T/C [33]: 5.59%
- viability, T/C [34]: 3.74%
- viability, T/C [35]: 3.56%
- viability, T/C [36]: 2.98%

SMILES: O=C(c1cc(Cc2n[nH]c(=O)c3ccccc23)ccc1F)N1CCN(C(=O)C2CC2)CC1 + Cc1cccc(N(C)C(=O)C2C(O)CCN2c2nc(C)cc(C(F)(F)F)c2C#N)c1
- IC50 (second compound 0.0316 µM): 4010 nM
- IC50 (second compound 0.1 µM): 1860 nM
- IC50 (second compound 0.316 µM): 2630 nM
- IC50 (second compound 1 µM): 2910 nM
- IC50 (second compound 3.16 µM): 3650 nM
- IC50 (second compound 10 µM): 4540 nM
- viability, T/C [1]: 75.4%
- viability, T/C [2]: 97.7%
- viability, T/C [3]: 89.7%
- viability, T/C [4]: 69.4%
- viability, T/C [5]: 59.6%
- viability, T/C [6]: 21.8%
- viability, T/C [7]: 84.1%
- viability, T/C [8]: 75.5%
- viability, T/C [9]: 93.3%
- viability, T/C [10]: 60.7%
- viability, T/C [11]: 42.4%
- viability, T/C [12]: 28.9%
- viability, T/C [13]: 119%
- viability, T/C [14]: 61.2%
- viability, T/C [15]: 78.2%
- viability, T/C [16]: 82.7%
- viability, T/C [17]: 44.5%
- viability, T/C [18]: 26.3%
- viability, T/C [19]: 104%
- viability, T/C [20]: 100%
- viability, T/C [21]: 74.2%
- viability, T/C [22]: 66.4%
- viability, T/C [23]: 54.2%
- viability, T/C [24]: 26.6%
- viability, T/C [25]: 108%
- viability, T/C [26]: 111%
- viability, T/C [27]: 81.6%
- viability, T/C [28]: 64.4%
- viability, T/C [29]: 60.3%
- viability, T/C [30]: 30.2%
- viability, T/C [31]: 115%
- viability, T/C [32]: 87.6%
- viability, T/C [33]: 104%
- viability, T/C [34]: 76.2%
- viability, T/C [35]: 64.6%
- viability, T/C [36]: 25.2%
